Data set [1] can be described thus: xn = mol fraction of the nth substance listed. The conditions noted are these: 101 kPa, Liquid, Taylor dispersion method, x1 = 0.
For data set [2] the following is noted: 101 kPa, Liquid, Taylor dispersion method.

On to `[N-]=[N+]=O` [nitrous oxide] + O, for which the binary diffusion coefficient was found to be 1.7e-09 m2/s in data set [1] (293.15 K); 2.05e-09 m2/s in data set [1] (298.15 K); 2.3e-09 m2/s in data set [1] (303.15 K); 2.99e-09 m2/s in data set [1] (313.15 K); 4.02e-09 m2/s in data set [1] (323.15 K); 4.9e-09 m2/s in data set [1] (333.15 K). Moreover, the binary diffusion coefficient in data set [1] (343.15 K) was found to be 5.79e-09 m2/s; in data set [1] (353.15 K), 7.09e-09 m2/s; in data set [1] (363.15 K), 8.23e-09 m2/s; in data set [1] (368.15 K), 8.87e-09 m2/s.
Consider `O` [water], for which the self diffusion coefficient was 1.7e-09 m2/s in data set [2] (293.15 K); 2.05e-09 m2/s in data set [2] (298.15 K); 2.3e-09 m2/s in data set [2] (303.15 K); 2.99e-09 m2/s in data set [2] (313.15 K); 4.02e-09 m2/s in data set [2] (323.15 K); 4.9e-09 m2/s in data set [2] (333.15 K). The self diffusion coefficient in data set [2] (343.15 K) was 5.79e-09 m2/s; in data set [2] (353.15 K), 7.09e-09 m2/s; in data set [2] (363.15 K) it was 8.23e-09 m2/s; in data set [2] (368.15 K), 8.87e-09 m2/s.

Source of the values: the NIST ThermoML archive (doi:10.1021/je700717w).
